# Data reported in PMC5812454 (Nanomedicine : nanotechnology, biology, and medicine, 2016).
# Where a SMILES comes first, the peptide text is derived from it. Bridges are numbered along the chain shown (N, C = ends). {NH2} = amine
# Columns and labels:
# [1] = target: T1, Recombinant human HER2 (Thr 23 – Thr 652) fused to IgG1 Fc Tag (Homo sapiens, UniProt P04626); experiment: SPR binding to immobilized HER2
# [2] = tested on: HER2-positive breast cancer; conditions: cited from earlier work
# [3] = ref [8]; cited from earlier work
# [4] = target: T1, Recombinant human HER2 (Thr 23 – Thr 652) fused to IgG1 Fc Tag; experiment: SPR
compound,measurement,setting,value
CSCC[C@H](NC(=O)[C@H](Cc1ccc(O)cc1)NC(=O)[C@@H]1CSSC[C@H](NC(=O)[C@@H](N)Cc2ccc(O)cc2)C(=O)N[C@@H](CC(=O)O)C(=O)NCC(=O)N[C@@H](Cc2ccccc2)C(=O)N[C@@H](Cc2ccc(O)cc2)C(=O)N[C@@H](C)C(=O)N1)C(=O)N[C@@H](CC(=O)O)C(=O)N[C@H](C(N)=O)C(C)C [AHNP] (H-YCDGFYACYMDV-NH2; disulfide 2-8),Kd,[1],0.52 µM
same,koff,[1]; pH 9.5,0.00042 s⁻¹
same,tumor growth inhibition (in words),"[2]; free AHNP, dose of 4 mg/kg, ref [12]",only a modest degree of inhibition
same,water solubility (in words),[3],poorly water soluble
"AHNP, anti-HER2/neu peptide, 12 amino acid exocyclic mimetic peptide (analogue 3)",koff,[4],0.00042 s⁻¹
"AON: HER2-mRNA annealing Morpholino AON 5′-CATGGTGCTCACTGCGGCTCCGGC-NH2-3′ (all phosphorodiamidate morpholino (PMO), 3' {NH2})",tumor growth inhibition,"[2]; AON in the absence of HER2 targeting, 2.5 mg/kg, ref [4]",30–40%
starPEG(PEG200-AHNP)2,Kd,[4],4.6 µM
same,koff,[4],0.00054 s⁻¹
same,kon,[4],118 M⁻¹ s⁻¹
